{"source": "patent US8138314B2", "about": "“Compositions and methods of monoclonal and polyclonal antibodies specific for T cell subpopulations” (Beth Israel Deaconess Medical Center, Inc., priority 2000, dated 2012)", "molecules": {"B1": {"name": "IL-7: cytokine added to T cell medium at 10 ng/ml (protein, UniProt P13232 26-177, looked up)", "Interleukin-7": "DCDIEGKDGKQYESVLMVSIDQLLDSMKEIGSNCLNNEFNFFKRHICDANKEGMFLFRAARKLRQFLKMNSTGDFDLHLLKVSEGTTILLNCTGQVKGRKPAALGEAQPTKSLEENKSLKEQKKLNDLCFLKRLLQEIKTCWNKILMGTKEH"}, "B2": {"name": "IL-12: human recombinant IL-12 (Genetics Institute), cytokine biasing T cells towards Th1 responses (protein, UniProt P29459 23-219; P29460 23-328, looked up)", "Interleukin-12 subunit alpha": "RNLPVATPDPGMFPCLHHSQNLLRAVSNMLQKARQTLEFYPCTSEEIDHEDITKDKTSTVEACLPLELTKNESCLNSRETSFITNGSCLASRKTSFMMALCLSSIYEDLKMYQVEFKTMNAKLLMDPKRQIFLDQNMLAVIDELMQALNFNSETVPQKSSLEEPDFYKTKIKLCILLHAFRIRAVTIDRVMSYLNAS", "Interleukin-12 subunit beta": "IWELKKDVYVVELDWYPDAPGEMVVLTCDTPEEDGITWTLDQSSEVLGSGKTLTIQVKEFGDAGQYTCHKGGEVLSHSLLLLHKKEDGIWSTDILKDQKEPKNKTFLRCEAKNYSGRFTCWWLTTISTDLTFSVKSSRGSSDPQGVTCGAATLSAERVRGDNKEYEYSVECQEDSACPAAEESLPIEVMVDAVHKLKYENYTSSFFIRDIIKPDPPKNLQLKPLKNSRQVEVSWEYPDTWSTPHSYFSLTFCVQVQGKSKREKKDRVFTDKTSATVICRKNASISVRAQDRYYSSSWSEWASVPCS"}}, "assay_type_in_all_cases": "cell-based, human", "key": {"[1]": {"system": "invariant NK T cells", "test": "6B11 FACS sort or magnetic bead immunoaffinity purification of PBMC followed by expansion", "details": "for Yield of invariant T cells: addition during expansion of 6B11 bead purified cells (FIGS. 12-17)", "method": "Starting with PBMC in which approximately 0.05% of the lymphocytes in PBMC are invariant T cells, approximately 5-30% of the purified and expanded cells were invariant T cells.\nPBMC or another tissue source is blocked with autologous serum at 4° C. An antibody reactive with invariant T cells (e.g., 6B11 or 3A6 antibody) is added at a ratio of about 1-10 μg antibody/10^7-8 PBMC and incubated for 20 minutes at 4° C. The antibody used in this method may be directly labeled with a conjugate such as FITC or biotin, or the antibody may be indirectly labeled with second reagent (e.g., anti-IgG-Fluorochrome or streptavidin-Fluorochrome). One or more other antibodies labeled with different fluorophores may also be added (FIGS. 7A-7C and 9). The solution of cells and antibodies is then washed using PBS or any other physiological buffer to remove unbound antibody.\nIf desired, the settings of the FACS cell sorter may be adjusted using either a positive (e.g., general anti-T cell antibody) or negative control antibody. The sample of interest may be analyzed at a rate of approximately 100 million cells per hour using a high speed FACS sorter (e.g., ‘MoFlo’FACS sorter). The purified T cells may be expanded in T cell media [e.g., 10% Fetal Bovine or human autologous or AB pooled serum in RPMI-1640 or equivalent media supplemented with buffer (e.g. Hepes), glutamine, and antibiotic (e.g., gentamicin)] in the presence of a mitogen such as PHA, an anti-CD3 antibody, the 6B11 antibody, the 3A6 antibody, and/or α-GalCer antigenic stimulus CD3 monoclonal antibody (Exley et al. 1997 and 1998, supra; Wilson et al., Nature 391:177, 1998). The antibody may be in solution or plate bound. Irradiated autologous feeders and IL-2 (10-100 U/ml) may also be added immediately or added at any time point during expansion. IL-7 (˜1-10 ng/ml) and/or IL-15 (˜1-10 ng/ml) may increase invariant NK T cells yields (e.g. Wilson et al. 1998, supra; van der Vliet et al. Journal of Immunological Methods 247:61-72, 2000). Dexamethasone or a related selective immune suppressive agent (˜1 μM) may preferentially enhance the growth of invariant NK T cells while inhibiting growth of conventional T cells (e.g. Milner et al., J. Immunol. 163(5):2522-25229, 1999). The media is replaced about twice a week with fresh media. During or subsequent to expansion (e.g., 2-4 weeks after expansion has begun), the T cells may be phenotypically analyzed by FACS. This analysis may be performed by staining with 6B11, anti-Vα24, anti-Vβ11, anti-CD4, anti-CD8αβ, or anti-CD161 antibodies.\nPBMC or another tissue source is blocked with 1-10% autologous serum by mixing at 4° C. in PBS or other physiological buffer. One or more antibodies that are reactive with invariant T cells (e.g., 6B11 or 3A6 antibody) is added at a ratio of about 1-10 μg monoclonal antibody/10^7-8 PBMC is incubated for 20 minutes at 4° C. The antibody used in this method may be directly labeled with a conjugate such as FITC or biotin or the antibody may be indirectly labeled with second reagent (e.g., anti-IgG-Fluorochrome or streptavidin-Fluorochrome). One or more other antibodies labeled with different fluorophores may also be added (FIGS. 7A-7C and 9). The solution of cells and antibodies is then washed using PBS or any other physiological buffer. Magnetic beads, such as ˜10-100 μl Miltenyi MACS Microbeads Anti-mouse IgG #484 or MACS Steptavidin Microbeads #481 per 10^7-8 PBMC; 10^5-7 Dynal Anti-IgG #M450 beads per 10^7-8 PBMC are added and the solution is mix at 4° C. […] The washed, purified cells are placed into multi-wells with T cell media [10% Fetal Bovine or human autologous or AB pooled serum in RPMI-1640 or equivalent media supplemented with buffer (e.g. Hepes), glutamine, and antibiotic (e.g. gentamicin)]. The cells may be expanded using a monoclonal antibody that is directly bound to the beads or in solution. […]"}, "[2]": {"system": "Vα24^+ Vβ11^+ invariant NK T cells", "test": "Ex vivo expansion of FACS purified Vα24^+ T cells with α-GalCer and autologous irradiated PBMCs, flow cytometry", "method": "(§1) Peripheral blood (10-20 ml) was drawn in heparin containing tubes from healthy donors and prostate cancer patients who had given their informed consent. PBMCs were isolated using Ficoll-Paque (Amersham Pharmacia, Uppsala, Sweden). Vα24 positive T cells were stained with an anti-Vα24 monoclonal antibody (C15) (Coulter, Miami, Fla.) followed by a goat anti-mouse IgG (H^+L) FITC conjugate (KPL, Gaithersburg, Md.) and were sorted by high speed FACS (Modular Flow FACS, Cytomation, Boulder, Colo.) (Dellabona et al., J. Exp. Med. 180:1171, 1994). Autologous PBMCs were irradiated (5000 rads) and used as APCs. The FACS purified Vα24^+ cells were initially co-cultured in 96 well flat bottomed plates (approximately 20,000 per well) with equal numbers of autologous irradiated PBMCs in the presence of α-GalCer (50 ng/ml, KRN7000, Kirin Brewery Co., Gunma, Japan) and recombinant IL-2 (100 U/ml) (National Cancer Institute, Bethesda, Md.). Cultures were then gradually expanded into 24 well plates using the same medium. In some cultures, human recombinant IL-12 (1 ng/ml) (Genetics Institute, Cambridge, Mass.) was added during the last week of culture.\nPhenotypic analysis of α-GalCer expanded cells was performed by two or three color flow cytometery after three to four weeks in culture. Previous reports have shown that dual staining for Vα24 and Vβ11 is a marker of invariant NK T cells, as Vα24 and Vβ11 are used very infrequently by bulk T cells (Dellabona et al., J. Exp. Med. 180:1171, 1994; Exley et al., J. Exp. Med. 186:109, 1997; Prussin and Foster J. Immunol. 159:5862, 1997). Antibodies used were anti-Vα24 PE, anti-Vβ11 FITC, anti-CD8β PE (Immunotech), anti-CD3 Cychrome, anti-CD161 PE, and anti-CD4 Cychrome (PharMingen, La Jolla, Calif.). As described previously (Exley et al., J. Exp. Med. 186:109, 1997; Exley et al., J. Exp. Med. 188:867, 1998), approximately 1×10^6 cells were suspended in 50 μl of FACS buffer (phosphate buffered saline with 1% fetal bovine serum and 0.1% NaN3) in single wells of 96 well plates (Exley et al., J. Exp. Med. 186:109, 1997; Exley et al, J. Exp. Med. 188:867, 1998). Non-specific antibody binding was blocked by pre-incubating cells with 10% human serum for 15 minutes on ice. Antibodies were then added to cell suspensions and incubated for 20 minutes on ice. Cells were washed twice with FACS buffer and analyzed using a FACScan (Becton Dickinson) with Cell Quest Software.\nDue to the small numbers of invariant NK T cells in peripheral blood, one round of ex vivo expansion was carried out to further assess the frequency and function of these cells. Invariant NK T cells from healthy donors and advanced prostate cancer patients were isolated from peripheral blood through an initial FACS purification with a Vα24 specific monoclonal antibody, followed by selective expansion in vitro for three to four weeks with α-GalCer and autologous irradiated PBMCs as a source of APCs. T cells were then analyzed by dual staining with Vα24 and Vβ11 or 6B11 monoclonal antibodies."}, "[3]": {"system": "prostate cancer derived invariant NK T cells", "test": "IL-12 treatment of prostate cancer derived invariant NK T cells during last week of culture, cytokine ELISA", "method": "as §1, with “Cultures were then gradually expanded into 24 well plates using the same medium. In some cultures, human recombinant IL-12 (1 ng/ml) (Genetics Institute, Cambridge, Mass.) was added during the last week of culture.” left out\nIn addition to being present at reduced levels, invariant NK T cells have reduced activity in prostate cancer patients. […] Released cytokine levels were determined in triplicates by capture ELISA with matched antibody pairs in relation to cytokine standards (Endogen, Inc. Cambridge, Mass.). […]\nAs invariant NK T cells may contribute to the anti-tumor effects of IL-12, it was next determined whether these cancer patient derived cells could respond to IL-12. […]"}, "[4]": {"system": "CD1d-reactive Vα24^+Vβ11^+ T cell lines", "test": "Ex vivo expansion of invariant NK T cell lines with IL-12, stimulation with anti-CD3 and CD161 antibody", "details": "for IFN-γ / IL-4 / Proliferation: plate-bound anti-CD3 and excess CD161 antibody", "excerpt": "NK T cells, CD1d-reactive T cells, or JαQ^+ T cells may be biased towards Th1-like NK or lymphokine-activated killer (LAK)-like cytotoxicity of invariant T cells, as well as, IFN-γ production to potentially augment their in vivo anti-tumor or anti-pathogen activity."}, "[5]": {"details": "expansion using α-GalCer after expansion using 6B11"}, "[6]": {"details": "addition during expansion, at the concentrations tested (FIGS. 12-17)"}}}
{"molecule": "CCCCCCCCCCCCCCCCCCCCCCCCCC(=O)N[C@@H](CO[C@H]1O[C@H](CO)[C@H](O)[C@H](O)[C@H]1O)[C@H](O)[C@H](O)CCCCCCCCCCCCCC", "note": "[α-GalCer, α-galactosylceramide]", "values": [{"measurement": "Number of invariant T cells", "setting": "[1]; [5]", "value": "did increase the number of invariant T cells"}, {"measurement": "Purity of invariant T cells", "setting": "[1]; [5]", "value": "did not improve the purity of invariant T cells"}, {"measurement": "Invariant NK T cells among expanded cells", "setting": "[2]; androgen ablation refractory prostate cancer patient (FIG. 21B)", "value": 13.6, "unit": "%"}, {"measurement": "Invariant NK T cells among expanded cells", "setting": "[2]; androgen ablation treated prostate cancer patient in remission (FIG. 21C)", "value": 75, "unit": "%"}, {"measurement": "Invariant NK T cells among expanded cells", "setting": "[2]; healthy donor (FIG. 21A)", "value": 98.5, "unit": "%"}, {"measurement": "Vα24^+ Vβ11^+ population of total cells", "setting": "[2]; healthy donor, α-GalCer and autologous irradiated PBMCs (FIG. 20B)", "value": 94.4, "unit": "%"}, {"measurement": "Recovery of Vα24^+ Vβ11^+ invariant NK T cells, mean", "setting": "[2]; healthy donors (FIG. 21D)", "value": "> 80", "unit": "%"}, {"measurement": "Recovery of Vα24^+ Vβ11^+ invariant NK T cells, mean", "setting": "[2]; series of advanced androgen independent prostate cancer patients (FIG. 21D)", "value": 10, "unit": "%"}, {"measurement": "Expanded Vα24^+ Vβ11^+ T cells expressing CD161", "setting": "[2]; series of healthy donors, each donor", "value": "> 70", "unit": "%"}]}
{"molecule": "IL-15: cytokine added to T cell medium at 10 ng/ml", "values": [{"measurement": "Yield of invariant T cells", "setting": "[1]", "value": "increased the yield of invariant T cells"}, {"measurement": "Purity of invariant T cells", "setting": "[1]; [6]", "value": "did not increase the purity of invariant T cells"}]}
{"molecule": "phytohemagglutinin [PHA]", "values": [{"measurement": "Vα24^+ Vβ11^+ T cell population after stimulation", "setting": "[2]; FACS purified Vα24^+ T cells stimulated with mitogen (FIG. 20A)", "value": "yielded only a minor population of Vα24^+ Vβ11^+ T cells"}]}
{"molecule": "B1", "values": [{"measurement": "Yield of invariant T cells", "setting": "[1]", "value": "increased the yield of invariant T cells"}, {"measurement": "Purity of invariant T cells", "setting": "[1]; [6]", "value": "did not increase the purity of invariant T cells"}]}
{"molecule": "B2", "values": [{"measurement": "IFN-γ production", "setting": "[3]; 1 ng/ml during the last week of culture", "value": "marked increase in IFN-γ production"}, {"measurement": "Ratios of IFN-γ/IL-4 production", "setting": "[3]; 1 ng/ml during the last week of culture (FIG. 22E)", "value": "comparable to those in the healthy donors"}, {"measurement": "IFN-γ/IL-4", "setting": "[4]; line 1, established with IL-12", "value": ">100"}, {"measurement": "IFN-γ", "setting": "[4]; line 1, established with IL-12", "value": ">500"}, {"measurement": "IL-4", "setting": "[4]; line 1, established with IL-12", "value": 4.8}, {"measurement": "Proliferation", "setting": "[4]; line 1, established with IL-12", "value": 56593}, {"measurement": "IFN-γ/IL-4", "setting": "[4]; line 2, established with IL-12", "value": 207}, {"measurement": "IFN-γ", "setting": "[4]; line 2, established with IL-12", "value": 331.8}, {"measurement": "IL-4", "setting": "[4]; line 2, established with IL-12", "value": 1.6}, {"measurement": "Proliferation", "setting": "[4]; line 2, established with IL-12", "value": 42499}]}
